In patent US20100119599A1 (ARCHER PHARMACEUTICALS, INC., priority 2006, published 2010):
Like-named read-outs stand apart in the source and are kept apart here.

Key:
Aβ1-42 = experiment: Measurement of Aβ1-42 in culture medium of 7W WT APP751 CHO cells by ELISA; format: cell-based, Chinese hamster; conditions: for activity at 5 µM: Cricetulus griseus, 5 μM test compound, CHO cells stably transfected with human APP751, culture medium, ELISA, control DMSO; for Aβ1-42 (% of control): CHO cells that overexpress APP751, zero = below the detection limit of the assay;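 for Aβ1-42 (% of control): 5 µM test compound but RI-coded compounds at 10 µM for 24 hours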
Aβ1-40 = experiment: Measurement of Aβ1-40 in culture medium of 7W WT APP751 CHO cells by ELISA; format: cell-based, Chinese hamster; conditions: for activity at 5 µM: Cricetulus griseus, 5 μM test compound, CHO cells stably transfected with human APP751, culture medium, ELISA, control DMSO; for Aβ1-40 (% of control): CHO cells that overexpress APP751, zero = below the detection limit of the assay;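 for all read-outs here: 5 µM test compound but RI-coded compounds at 10 µM for 24 hours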
[1] = Table 1, 0 = no detectable amount, read-out: Aβ1-42 (% of control)
[2] = Table 1, 0 = no detectable amount

SMILES | activity at 5 µM (Aβ1-42; [1]) | activity at 5 µM (Aβ1-40; [2]) | Aβ1-42 (% of control) (Aβ1-42) | Aβ1-40 (% of control) (Aβ1-40) | further results
CCCCCc1c2c(C)c(C(=O)OCC)cc-2cc2n1C(C)C(C)=C2C (stereo not drawn) [ST020165, ethyl 3,6,7,8-tetramethyl-4-pentyl-6-hydropyrrolo[4,5-f]indolizine-2-carboxyla te, chloride] | – | – | – | – | activity at 5 µM (Aβ1-42; Table 3, read-out: Aβ-42 (% of control)): 23.1%; activity at 5 µM (Aβ1-40; Table 3): 90.9%
CCOC(=O)C1=C(C)NC2=C(C(=O)CCC2)C1c1cc(Br)c(C)s1 (stereo not drawn) [ST020910, ethyl 4-(4-bromo-5-methyl(2-thienyl))-2-methyl-5-oxo-1,4,6,7,8-pentahydroquinoline-3-carboxylate] | 69.8% | 47.3% | – | – | –
Cc1ccccc1N1C2=C(C(=O)CC(C)(C)C2)C(c2ccccc2)C2=C1c1ccccc1C2=O (stereo not drawn) [ST024318, 3,3-dimethyl-5-(2-methylphenyl)-11-phenyl-2,3,4,5,11-pentahydroindeno[3,2-b]quinoline-1,10-dione] | 99.5% | 64.9% | – | – | –
CCOC(=O)C1=C(N)n2c(s/c(=C\c3ccncc3)c2=O)=C(C#N)C1c1ccncc1 (stereo not drawn) [ST024405, ethyl 5-amino-8-cyano-3-oxo-7-(4-pyridyl)-2-(4-pyridylmethylene)-4,7-dihydro-1,3-thiazolidino[3,2-a]pyridine-6-carboxylate] | – | – | 77.41 % of control | 59.66 % of control | –
CCCCOC(=O)C1=C(C)NC2=C(C(=O)CC(C)(C)C2)C1c1ccc(Cl)cc1 (stereo not drawn) [ST024431, butyl 4-(4-chlorophenyl)-2,7,7-trimethyl-5-oxo-1,4,6,7,8-pentahydroquinoline-3-carboxylate] | 0% | 0% | – | – | –
CCOC(=O)C1=C(C)NC2=C(C(=O)CCC2)C1c1ccc(Cl)cc1 (stereo not drawn) [ST024440, ethyl 4-(4-chlorophenyl)-2-methyl-5-oxo-1,4,6,7,8-pentahydroquinoline-3-carboxylate] | 97.7% | 63.1% | – | – | –
CCOC(=O)C1=C(C)NC2=C(C(=O)CCC2)C1c1ccc(Cl)cc1Cl (stereo not drawn) [ST024444, ethyl 4-(2,4-dichlorophenyl)-2-methyl-5-oxo-1,4,6,7,8-pentahydroquinoline-3-carboxylate] | 16.6% | 37.4% | – | – | –
CC1=C(C(=O)OC2CCCCCC2)C(c2cccc(Br)c2)C2=C(CC(C)(C)CC2=O)N1 (stereo not drawn) [ST024487, cycloheptyl 4-(3-bromophenyl)-2,7,7-trimethyl-5-oxo-1,4,6,7,8-pentahydroquinoline-3-carboxylate] | 3.77% | 5.07% | – | – | –
COc1ccc(C2C(C(=O)OC3CCCCCC3)=C(C)NC3=C2C(=O)CC(C)(C)C3)c(OC)c1OC (stereo not drawn) [ST024504, cycloheptyl 2,7,7-trimethyl-5-oxo-4-(2,3,4-trimethoxyphenyl)-1,4,6,7,8-pentahydroquinoline-3-carboxylate] | 0% | 0.415% | – | – | –
COC(=O)C1=C(C)N(C)C(C)=C(C(=O)OC)C1c1cccc(Oc2ccccc2)c1 [ST024552, methyl 5-(methoxycarbonyl)-1,2,6-trimethyl-4-(3-phenoxyphenyl)-1,4-dihydropyridine-3-carboxylate] | – | – | 74.81 % of control | 57.26 % of control | –
COC(=O)C1=C(C)N(C)C(C)=C(C(=O)OC)C1c1ccccn1 [ST024568, methyl 5-(methoxycarbonyl)-1,2,6-trimethyl-4-(2-pyridyl)-1,4-dihydropyridine-3-carboxylate] | – | – | 70.13 % of control | 67.61 % of control | –
COC(=O)C1=C(C)NC2=C(C(=O)CC(c3ccc(OC)c(OC)c3)C2)C1c1cc(OC)c(OC)c(OC)c1 (stereo not drawn) [ST024574, methyl 7-(3,4-dimethoxyphenyl)-2-methyl-5-oxo-4-(3,4,5-trimethoxyphenyl)-1,4,6,7,8-pentahydroquinoline-3-carboxylate] | 83.6% | 65.3% | – | – | –
COC(=O)C1=CN(Cc2ccc(F)cc2)C=C(C(=O)OC)C1c1ccc(Cl)cc1 [ST024836, methyl 4-(4-chlorophenyl)-1-[(4-fluorophenyl)methyl]-5-(methoxycarbonyl)-1,4-dihydropyridine-3-carboxylate] | – | – | 82.55 % of control | 26.41 % of control | –
N#CC1=C(N)n2c(s/c(=C/c3cccc(Br)c3)c2=O)=C(C#N)C1c1cccc(Br)c1 (stereo not drawn) [ST024841, 5-amino-7-(3-bromophenyl)-2-[(3-bromophenyl)methylene]-3-oxo-4,7-dihydro-1,3-thiazolidino[3,2-a]pyridine-6,8-dicarbonitrile] | – | – | 95.58 % of control | 61.78 % of control | –
COc1ccc(/C=c2\sc3n(c2=O)C(N)=C(C#N)C(c2ccc(OC)cc2OC)C=3C#N)c(OC)c1 (stereo not drawn) [ST025017, 5-amino-7-(2,4-dimethoxyphenyl)-2-[(2,4-dimethoxyphenyl)methylene]-3-oxo-4,7-dihydro-1,3-thiazolidino[3,2-a]pyridine-6,8-dicarbonitrile] | – | – | 72.39 % of control | 64.54 % of control | –
CCOc1ccc(/C=c2\sc3n(c2=O)C(N)=C(C#N)C(c2ccc(OCC)c(OC)c2)C=3C#N)cc1OC (stereo not drawn) [ST025022, 5-amino-7-(4-ethoxy-3-methoxyphenyl)-2-[(4-ethoxy-3-methoxyphenyl)methylene]-3-oxo-4,7-dihydro-1,3-thiazolidino[3,2-a]pyridine-6,8-dicarbonitrile] | – | – | 76.11 % of control | 61.31 % of control | –
CC(C)COc1cccc(/C=c2\sc3n(c2=O)C(N)=C(C#N)C(c2cccc(OCC(C)C)c2)C=3C#N)c1 (stereo not drawn) [ST025023, 5-amino-7-[3-(2-methylpropoxy)phenyl]-2-{[3-(2-methylpropoxy)phenyl]methylene}-3-oxo-4,7-dihydro-1,3-thiazolidino[3,2-a]pyridine-6,8-dicarbonitrile] | – | – | 85.29 % of control | 68.13 % of control | –
CC(C)Oc1ccc(/C=c2\sc3n(c2=O)C(N)=C(C#N)C(c2ccc(OC(C)C)cc2)C=3C#N)cc1 (stereo not drawn) [ST025026, 5-amino-7-[4-(methylethoxy)phenyl]-2-{[4-(methylethoxy)phenyl]methylene}-3-oxo-4,7-dihydro-1,3-thiazolidino[3,2-a]pyridine-6,8-dicarbonitrile] | – | – | 0 % of control | 26.82 % of control | –
COc1cc(/C=c2\sc3n(c2=O)C(N)=C(C#N)C(c2ccc(OC(C)C)c(OC)c2)C=3C#N)ccc1OC(C)C (stereo not drawn) [ST025029, 5-amino-7-[3-methoxy-4-(methylethoxy)phenyl]-2-{[3-methoxy-4-(methylethoxy)phenyl]methylene}-3-oxo-4,7-dihydro-1,3-thiazolidino[3,2-a]pyridine-6,8-dicarbonitrile] | – | – | 73.69 % of control | 65.7 % of control | –
N#CC1=C(N)n2c(s/c(=C\c3cc(Br)ccc3O)c2=O)=C(C#N)C1c1cc(Br)ccc1O (stereo not drawn) [ST025030, 5-amino-7-(5-bromo-2-hydroxyphenyl)-2-[(5-bromo-2-hydroxyphenyl)methylene]-3-oxo-4,7-dihydro-1,3-thiazolidino[3,2-a]pyridine-6,8-dicarbonitrile] | – | – | 33.93 % of control | 39.29 % of control | –
COc1cc(/C=c2\sc3n(c2=O)C(N)=C(C#N)C(c2cc(OC)c(OC)c(OC)c2)C=3C#N)cc(OC)c1OC (stereo not drawn) [ST025031, 5-amino-3-oxo-7-(3,4,5-trimethoxyphenyl)-2-[(3,4,5-trimethoxyphenyl)methylene]-4,7-dihydro-1,3-thiazolidino[3,2-a]pyridine-6,8-dicarbonitrile] | – | – | 77.59 % of control | 55.17 % of control | –
COc1cc(/C=c2\sc3n(c2=O)C(N)=C(C#N)C(c2ccc(O)c(OC)c2)C=3C#N)ccc1O (stereo not drawn) [ST025032, 5-amino-7-(4-hydroxy-3-methoxyphenyl)-2-[(4-hydroxy-3-methoxyphenyl)methylene]-3-oxo-4,7-dihydro-1,3-thiazolidino[3,2-a]pyridine-6,8-dicarbonitrile] | – | – | 32.98 % of control | 27.77 % of control | –
CCOc1cc(/C=c2\sc3n(c2=O)C(N)=C(C#N)C(c2ccc(O)c(OCC)c2)C=3C#N)ccc1O (stereo not drawn) [ST025033, 5-amino-7-(3-ethoxy-4-hydroxyphenyl)-2-[(3-ethoxy-4-hydroxyphenyl)methylene]-3-oxo-4,7-dihydro-1,3-thiazolidino[3,2-a]pyridine-6,8-dicarbonitrile] | – | – | 57.6 % of control | 53.66 % of control | –
N#CC1=C(N)n2c(s/c(=C\c3ccc(O)cc3)c2=O)=C(C#N)C1c1ccc(O)cc1 (stereo not drawn) [ST025034, 5-amino-7-(4-hydroxyphenyl)-2-[(4-hydroxyphenyl)methylene]-3-oxo-4,7-dihydro-1,3-thiazolidino[3,2-a]pyridine-6,8-dicarbonitrile] | – | – | 85.11 % of control | 69.9 % of control | –
